Assay results as given in patent publication US7678913B2, “Ureas as factor Xa inhibitors” (Portola Pharmaceuticals, Inc., priority 2004, dated 2010).

biological target: T1, human plasma protein factor Xa (Homo sapiens, UniProt P00742); experiment: Factor Xa IC50 determination (cleavage of chromogenic substrate S-2765); type: biochemical; settings: fXa 1 nM, S-2765 100 μM, Tris buffered saline pH 7.4, room temperature
T1 construct: measure proteolytic activity of the enzyme (factor Xa); purchased Haematologic Technologies (Essex Junction, Vt.); host or cells: human plasma
Summary of the method: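 Human plasma factor Xa (1 nM) preincubated 5 min at room temperature with inhibitor (0.01 nM–10 μM final) in Tris-buffered saline pH 7.4 with CaCl2, BSA and 5% DMSO. S-2765 added at 100 μM; pNA release at 405 nm over 2 min; initial velocities fitted to four-parameter equation for IC50, duplicates.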

T1 sequence (P00742 235-488 limits assumed): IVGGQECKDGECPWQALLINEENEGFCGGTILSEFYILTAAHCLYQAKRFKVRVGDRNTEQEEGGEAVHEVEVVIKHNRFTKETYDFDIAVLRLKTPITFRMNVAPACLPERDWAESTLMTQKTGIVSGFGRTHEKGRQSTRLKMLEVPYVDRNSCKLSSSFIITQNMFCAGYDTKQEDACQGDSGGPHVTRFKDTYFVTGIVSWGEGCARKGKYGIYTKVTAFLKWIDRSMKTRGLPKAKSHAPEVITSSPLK
T1 sequence (P00742 41-179 partner limits assumed): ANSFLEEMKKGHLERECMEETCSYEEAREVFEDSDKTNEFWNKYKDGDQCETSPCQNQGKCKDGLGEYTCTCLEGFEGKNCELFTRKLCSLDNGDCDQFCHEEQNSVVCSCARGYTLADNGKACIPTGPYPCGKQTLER

Row | SMILES | IC50 [nM]
1 | CN1CCN=C1c1ccc(NC(=O)C(NC(=O)Nc2ccc(Cl)cc2)c2cccc(Cl)c2)cc1 (stereo not shown) [Example 74, N-[4-(1-methyl-4,5-dihydro-1H-imidazol-2-yl)phenyl]-2-(3-chlorophenyl)-2-(4-chlorophenylaminocarbonylamino)-acetamide] | ≤ 100
2 | CN1CCN=C1c1ccc(NC(=O)C(NC(=O)Nc2ccc(Cl)cc2)c2ccccc2Cl)cc1 (stereo not shown) [Example 75, N-[4-(1-methyl-4,5-dihydro-1H-imidazol-2-yl)phenyl]-2-(2-chlorophenyl)-2-(4-chlorophenylaminocarbonylamino)-acetamide] | ≤ 100
3 | CN1CCN=C1c1ccc(NC(=O)C(NC(=O)Nc2ccc(Cl)cc2)c2ccc3c(c2)OCO3)cc1 (stereo not shown) [Example 76, N-[4-(1-methyl-4,5-dihydro-1H-imidazol-2-yl)phenyl]-2-(benzo-1,3-dioxl-5-yl)-2-(4-chlorophenylaminocarbonylamino)-acetamide] | ≤ 100
4 | CN1CCN=C1c1ccc(NC(=O)C(NC(=O)Nc2ccc(Cl)cc2)c2ccccc2Br)cc1 (stereo not shown) [Example 77, N-[4-(1-methyl-4,5-dihydro-1H-imidazol-2-yl)phenyl]-2-(2-bromophenyl)-2-(4-chlorophenylaminocarbonylamino)-acetamide] | ≤ 100
5 | O=C(Nc1ccc(Cl)cc1)NC(C(=O)Nc1ccc(-c2cc[n+]([O-])cc2)cc1)c1ccccc1Br (stereo not shown) [Example 78, N-[4-(N-oxo-pyridin-4-yl)phenyl]-2-(2-bromophenyl)-2-(4-chlorophenylaminocarbonylamino)-acetamide] | 100 to 500
6 | O=C(Nc1ccc(Cl)cc1)NC(C(=O)Nc1ccc(-c2cccc[n+]2[O-])cc1)c1ccccc1Br (stereo not shown) [Example 79, N-[4-(N-oxo-pyridin-2-yl)phenyl]-2-(2-bromophenyl)-2-(4-chlorophenylaminocarbonylamino)-acetamide] | ≤ 100
7 | CC(C)N1CCC(NC(=O)C(NC(=O)Nc2ccc(Cl)cc2)c2ccccc2Br)CC1 (stereo not shown) [Example 82, N-(1-isopropylpiperidin-4-yl)-2-(2-bromophenyl)-2-(4-chlorophenylamino-carbonylamino)-acetamide] | ≥ 500
8 | CN1CCC(N2CCN(C(=O)C(NC(=O)Nc3ccc(Cl)cc3)c3ccccc3Br)CC2)CC1 (stereo not shown) [Example 83] | ≤ 100
9 | Cc1ccccc1C(NC(=O)Nc1ccc(Cl)cc1)C(=O)Nc1ccc(-n2ccnc2CN(C)C)cc1F (stereo not shown) [Example 85, N-[4-(2-dimethylaminomethyl-imidazol-1-yl)-2-fluorophenyl]-2-(2-methylphenyl)-2-(4-chlorophenylaminocarbonylamino)-acetamide] | ≤ 100
10 | Cc1ccccc1C(NC(=O)Nc1ccc(Cl)cc1)C(=O)NC1CCN(C(C)C)CC1 (stereo not shown) [Example 90, N-(1-isopropylpiperidin-4-yl)-2-(2-methylphenyl)-2-(4-chlorophenylamino-carbonylamino)-acetamide] | ≥ 500
11 | Cc1ccccc1C(NC(=O)Nc1ccc(Cl)cc1)C(=O)N1CCN(C2CCN(C)CC2)CC1 (stereo not shown) [Example 91] | ≤ 100
12 | Cc1ccccc1C(NC(=O)Nc1ccc(Cl)cc1)C(=O)NCC1CCN(c2ccncc2)CC1 (stereo not shown) [Example 93, N-[1-(pyridin-4-yl)piperidin-4-yl]methyl-2-(2-methylphenyl)-2-(4-chlorophenylaminocarbonylamino)-acetamide] | ≤ 100
13 | O=C(Nc1ccc(Cl)cc1)NC(C(=O)Nc1ccc(-c2cccc[n+]2[O-])cc1)c1ccccc1Cl (stereo not shown) [Example 99, N-[4-(N-oxo-pyridin-2-yl)phenyl]-2-(2-chlorophenyl)-2-(4-chlorophenylaminocarbonylamino)-acetamide] | ≤ 100
14 | CN1CCCN(c2ccc(NC(=O)C(NC(=O)Nc3ccc(Cl)cc3)c3ccccc3Cl)cc2)CC1 (stereo not shown) [Example 102, N-[4-(4-methyl-homopiperazinyl)phenyl]-2-(2-chlorophenyl)-2-(4-chlorophenylaminocarbonylamino)-acetamide] | ≤ 100
15 | CC(C)N1CCC(NC(=O)C(NC(=O)Nc2ccc(Cl)cc2)c2ccccc2Cl)CC1 (stereo not shown) [Example 103, N-(1-isopropylpiperidin-4-yl)-2-(2-chlorophenyl)-2-(4-chlorophenylamino-carbonylamino)-acetamide] | ≥ 500
16 | CN1CCC(N2CCN(C(=O)C(NC(=O)Nc3ccc(Cl)cc3)c3ccccc3Cl)CC2)CC1 (stereo not shown) [Example 104, N-[4-(1-methylpiperidin-4-yl)piperazin-1-yl]-2-(2-chlorophenyl)-2-(4-chlorophenylaminocarbonylamino)-acetamide] | ≤ 100
17 | O=C(Nc1ccc(Cl)cc1)NC(C(=O)NCC1CCN(c2ccncc2)CC1)c1ccccc1Cl (stereo not shown) [Example 105, N-[1-(pyridin-4-yl)piperidin-4-yl]methyl-2-(2-chlorophenyl)-2-(4-chlorophenylaminocarbonylamino)-acetamide] | ≤ 100
18 | COc1ccccc1C(NC(=O)Nc1ccc(Cl)cc1)C(=O)Nc1ccc(C2=NCCN2C)cc1 (stereo not shown) [Example 106, N-[4-(1-methyl-4,5-dihydro-1H-imidazol-2-yl)phenyl]-2-(2-methoxyphenyl)-2-(4-chlorophenylaminocarbonylamino)-acetamide] | ≤ 100
19 | COc1ccccc1C(NC(=O)Nc1ccc(Cl)cc1)C(=O)Nc1ccc(-c2cccc[n+]2[O-])cc1 (stereo not shown) [Example 107, N-[4-(N-oxo-pyridin-2-yl)phenyl]-2-(2-methoxyphenyl)-2-(4-chlorophenylaminocarbonylamino)-acetamide] | ≤ 100
20 | COc1ccccc1C(NC(=O)Nc1ccc(Cl)cc1)C(=O)NCC1CCN(c2ccncc2)CC1 (stereo not shown) [Example 108, N-[1-(pyridin-4-yl)piperidin-4-yl]methyl-2-(2-methoxyphenyl)-2-(4-chlorophenylaminocarbonylamino)-acetamide] | ≤ 100
21 | COc1ccccc1C(NC(=O)Nc1ccc(Cl)cc1)C(=O)N1CCN(C2CCN(C)CC2)CC1 (stereo not shown) [Example 109, N-[4-(1-methylpiperidin-4-yl)piperazin-1-yl]-2-(2-methoxyphenyl)-2-(4-chlorophenylaminocarbonylamino)-acetamide] | ≤ 100
22 | COc1ccccc1C(NC(=O)Nc1ccc(Cl)cc1)C(=O)NC1CCN(C(C)C)CC1 (stereo not shown) [Example 110, N-(1-isopropylpiperidin-4-yl)-2-(2-methoxyphenyl)-2-(4-chlorophenylamino-carbonylamino)-acetamide] | ≥ 500

Now from value to compound:

Row | IC50 [nM] | SMILES
23 | ≤ 100 | CN(C)C(=N)c1ccc(NC(=O)C(NC(=O)Nc2ccc(Cl)cc2)c2ccccc2Br)cc1 (stereo not shown) [Example 80, N-[4-(dimethylaminoimino)phenyl]-2-(2-bromophenyl)-2-(4-chlorophenylaminocarbonylamino)-acetamide]
24 | ≤ 100 | N=C(c1ccc(NC(=O)C(NC(=O)Nc2ccc(Cl)cc2)c2ccccc2Br)cc1)N1CCCC1 (stereo not shown) [Example 81]
25 | ≤ 100 | Cc1ccccc1C(NC(=O)Nc1ccc(Cl)cc1)C(=O)Nc1ccc(C2=NCCN2C)cc1 (stereo not shown) [Example 84, N-[4-(1-methyl-4,5-dihydro-1H-imidazol-2-yl)phenyl]-2-(2-methylphenyl)-2-(4-chlorophenylaminocarbonylamino)-acetamide]
26 | ≤ 100 | Cc1ccccc1C(NC(=O)Nc1ccc(Cl)cc1)C(=O)Nc1ccc(C(=N)N(C)C)cc1 (stereo not shown) [Example 86]
27 | ≤ 100 | Cc1ccccc1C(NC(=O)Nc1ccc(Cl)cc1)C(=O)Nc1ccc(C(=N)N2CCCC2)cc1 (stereo not shown) [Example 87]
28 | ≤ 100 | Cc1ccccc1C(NC(=O)Nc1ccc(Cl)cc1)C(=O)Nc1ccc(-c2cccc[n+]2[O-])cc1 (stereo not shown) [Example 88, N-[4-(N-oxo-pyridin-2-yl)phenyl]-2-(2-methylphenyl)-2-(4-chlorophenylaminocarbonylamino)-acetamide]
29 | ≤ 100 | Cc1ccccc1C(NC(=O)Nc1ccc(Cl)cc1)C(=O)Nc1ccc(-c2ccccc2CN(C)C)cc1 (stereo not shown) [Example 89, N-[4-(2-dimethylaminomethyl-phenyl)phenyl]-2-(2-methylphenyl)-2-(4-chlorophenylaminocarbonylamino)-acetamide]
30 | ≤ 100 | Cc1ccccc1C(NC(=O)Nc1ccc(Cl)cc1)C(=O)Nc1ccc(N2CCCN(C)CC2)cc1 (stereo not shown) [Example 92, N-[4-(4-methyl-homopiperazinyl)phenyl]-2-(2-methylphenyl)-2-(4-chlorophenylaminocarbonylamino)-acetamide]
31 | ≤ 100 | Cc1ccccc1C(NC(=O)Nc1ccc(Cl)cc1)C(=O)Nc1ccc(C(=O)N2CCCC2)cc1 (stereo not shown) [Example 94, N-[4-(pyrrolidin-1-ylcarbonyl)phenyl]-2-(2-methylphenyl)-2-(4-chlorophenylaminocarbonylamino)-acetamide]
32 | ≤ 100 | Cc1ccccc1C(NC(=O)Nc1ccc(Cl)cc1)C(=O)Nc1ccc(N2CCOCC2=O)cc1 (stereo not shown) [Example 95, N-[4-(3-oxo-morpholin-4-yl)phenyl]-2-(2-methylphenyl)-2-(4-chlorophenylaminocarbonylamino)-acetamide]
33 | ≤ 100 | Cc1ccccc1C(NC(=O)Nc1ccc(Cl)cc1)C(=O)Nc1ccc(N(C)c2ccncc2)cc1 (stereo not shown) [Example 96, N-[4-(N-methyl-N-pyridin-4-yl-amino)phenyl]-2-(2-methylphenyl)-2-(4-chlorophenylaminocarbonylamino)-acetamide]
34 | ≤ 100 | Cc1ccccc1C(NC(=O)Nc1ccc(Cl)cc1)C(=O)Nc1ccc(C(=O)N2CCSC2)cc1 (stereo not shown) [Example 97, N-[4-(thiazolidin-3-ylcarbonyl)phenyl]-2-(2-methylphenyl)-2-(4-chlorophenylaminocarbonylamino)-acetamide]
35 | ≤ 100 | Cc1ccccc1C(NC(=O)Nc1ccc(Cl)cc1)C(=O)Nc1ccc(C(=O)N2CCOC2)cc1 (stereo not shown) [Example 98, N-[4-(oxazolidin-3-ylcarbonyl)phenyl]-2-(2-methylphenyl)-2-(4-chlorophenylaminocarbonylamino)-acetamide]
36 | ≤ 100 | CN(C)C(=N)c1ccc(NC(=O)C(NC(=O)Nc2ccc(Cl)cc2)c2ccccc2Cl)cc1 (stereo not shown) [Example 100, N-[4-(dimethylaminoimino)phenyl]-2-(2-chlorophenyl)-2-(4-chlorophenylaminocarbonylamino)-acetamide]
37 | ≤ 100 | N=C(c1ccc(NC(=O)C(NC(=O)Nc2ccc(Cl)cc2)c2ccccc2Cl)cc1)N1CCCC1 (stereo not shown) [Example 101]
